Laboratory results taken from patent US9708336B2, “Metallo-beta-lactamase inhibitors” (priority 2014, dated 2017).
Where two headings read alike, the source gives them in different places.

Columns and labels:
[1] = system: Klebsiella pneumoniae expressing VIM-1 (IHMA599644); experiment: Antibiotic potentiation activity: synergistic concentration (MITC95) with imipenem, OD600 growth; assay type: cell-based; details: for Klebsiella pneumoniae expressing VIM-1 (IHMA 599644) MITC95: concentration giving 95% inhibition of bacterial growth; for Klebsiella pneumoniae MITC95: Klebsiella pneumoniae expressing VIM-1 (IHMA599644), 95% growth inhibition
How it was run: (§1)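 Compound activity is tested with and without imipenem, which is present at 4 μg/ml (or 1 μg/ml) in the well. Bacteria in 1.1× CAMHB are incubated 22–24 h at 35 °C; absorbance gives the growth endpoint.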

[2] = system: Escherichia coli expressing NDM-1 (CLB30005); experiment: as above; assay type: cell-based; details: for Escherichia coli expressing NDM-1 (CLB 30005) MITC95: concentration giving 95% inhibition of bacterial growth; for Escherichia coli MITC95: Escherichia coli expressing NDM-1 (CLB30005), 95% growth inhibition
How it was run: as §1

[3] = system: Serratia marcescens expressing IMP-1 (CL5741); experiment: as above; assay type: cell-based; details: for Serratia marcescens expressing IMP-1 (CL5741) MITC95: concentration giving 95% inhibition of bacterial growth; for Serratia marcescens MITC95: Serratia marcescens expressing IMP-1 (CL5741), 95% growth inhibition
How it was run: as §1

NDM-1 = NDM-1 (Klebsiella pneumoniae, UniProt C7C422); experiment: biochemical; assay type: biochemical; details: read-out: NDM-1 IC50
Sequence of NDM-1 (C7C422 whole entry, looked up, species assumed): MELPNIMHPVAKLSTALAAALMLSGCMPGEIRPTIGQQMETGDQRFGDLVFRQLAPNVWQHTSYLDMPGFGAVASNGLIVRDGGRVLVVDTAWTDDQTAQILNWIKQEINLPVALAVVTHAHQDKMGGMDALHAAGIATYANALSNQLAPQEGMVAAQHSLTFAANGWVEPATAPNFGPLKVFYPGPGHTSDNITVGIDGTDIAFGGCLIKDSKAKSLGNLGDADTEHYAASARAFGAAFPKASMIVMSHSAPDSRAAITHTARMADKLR

IMP-1 = IMP-1 (Serratia marcescens, UniProt P52699); experiment: biochemical; assay type: biochemical; details: read-out: IMP-1 IC50
Sequence of IMP-1 (P52699 whole entry, looked up): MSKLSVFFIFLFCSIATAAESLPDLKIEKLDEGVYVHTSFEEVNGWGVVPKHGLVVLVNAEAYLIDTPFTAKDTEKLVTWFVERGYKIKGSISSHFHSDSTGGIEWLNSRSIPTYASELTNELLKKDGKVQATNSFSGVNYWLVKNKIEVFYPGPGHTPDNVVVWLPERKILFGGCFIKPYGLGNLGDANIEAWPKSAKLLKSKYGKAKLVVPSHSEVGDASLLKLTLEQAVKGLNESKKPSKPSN

VIM-1 = VIM-1 (Pseudomonas aeruginosa (strain ATCC 15692 / DSM 22644 / CIP 104116 / JCM 14847 / LMG 12228 / 1C / PRS 101 / PAO1), UniProt A0A0F7KYQ8); experiment: Enzyme activity: determination of IC50, fluorescence assay with CCF2-FA substrate (VIM-1); assay type: biochemical
[4] = fluorescence assay with CCF2-FA substrate
[5] = fluorescence assay with CCF2-FA substrate, read-out: VIM-1 IC50
[6] = VIM-1 IC50, fluorescence assay with CCF2-FA substrate
[7] = NDM-1 enzyme, CCF2-FA fluorescence assay
[8] = IMP-1 enzyme, CCF2-FA fluorescence assay
[9] = VIM-1 IC50, VIM-1 enzyme, CCF2-FA fluorescence assay
[10] = VIM-1 enzyme, CCF2-FA fluorescence assay, read-out: VIM-1 IC50

Compound	Klebsiella pneumoniae expressing VIM-1 (IHMA 599644) MITC95 [1] [µM]	Escherichia coli expressing NDM-1 (CLB 30005) MITC95 [2] [µM]	Serratia marcescens expressing IMP-1 (CL5741) MITC95 [3] [µM]	IC50 (NDM-1; [4]) [nM]	IC50 (IMP-1; [4]) [nM]	IC50 (VIM-1; [5]) [nM]	IC50 (VIM-1; [6]) [nM]	Klebsiella pneumoniae MITC95 [1] [µM]	Escherichia coli MITC95 [2] [µM]	Serratia marcescens MITC95 [3] [µM]	IC50 (NDM-1; [7]) [nM]	IC50 (IMP-1; [8]) [nM]	IC50 (VIM-1; [9]) [nM]	IC50 (VIM-1; [10]) [nM]
NS(=O)(=O)c1nccc(-c2ccc(C(=O)NC3CC3)cc2)c1-c1nnn[nH]1 [Example 185, N-Cyclopropyl-4-(2-sulfamoyl-3-(1H-tetrazol-5-yl)pyridin-4-yl)benzamide]	>200	2.344	75	135	1480	2020								
NS(=O)(=O)c1nccc(-c2ccc3c(c2)CC(=O)N3)c1-c1nn[nH]n1 [Example 201, 4-(2-oxoindolin-5-yl)-3-(2H-tetrazol-5-yl)pyridine-2-sulfonamide]	18.75	0.7813	50	66.2	1450		67.1							
Cc1sccc1-c1cccc(S(N)(=O)=O)c1-c1nn[nH]n1 [Example 108, 3-(2-methylthiophen-3-yl)-2-(2H-tetrazol-5-yl)benzenesulfonamide]	37.5	1.172	18.75	5.8	255		45							
C[C@H](O)c1nc(-c2ccc(-c3cccc(S(N)(=O)=O)c3-c3nn[nH]n3)cc2)no1 [Example 251, (S)-4′-(5-(1-hydroxyethyl)-1,2,4-oxadiazol-3-yl)-2-(2H-tetrazol-5-yl)-[1,1′-biphenyl]-3-sulfonamide]								200	0.7813	6.25	5.85	42.5	71.6	
CCN(CC)C(=O)c1ccc(-c2cccc(S(N)(=O)=O)c2-c2nn[nH]n2)cc1 [Example 9, N,N-diethyl-3′-sulfamoyl-2′-(2H-tetrazol-5-yl)biphenyl-4-carboxamide]	>200	3.125	12.5	1.48	17.2	277								
NS(=O)(=O)c1nccc(-c2ccc(C3CCNCC3)cc2)c1-c1nnn[nH]1 [Example 197, 4-(4-(piperidin-4-yl)phenyl)-3-(1H-tetrazol-5-yl)pyridine-2-sulfonamide]	1.563	0.3906	1.563	130	582	70.2								
COc1ccc(S(N)(=O)=O)c(-c2nn[nH]n2)c1 [Example 253, 4-Methoxy-2-(2H-tetrazol-5-yl)benzenesulfonamide]								>200	3.125	>200	440	46300		170000
NS(=O)(=O)c1nccc(-c2ccc(C(=O)O)cc2)c1-c1nnn[nH]1 [Example 183, 4-(2-Sulfamoyl-3-(1H-tetrazol-5-yl)pyridin-4-yl)benzoic acid]	75	4.688	50	11.5	339		173							
NS(=O)(=O)c1cccc(-c2ccc(C3(C(F)(F)F)OCCO3)nc2)c1-c1nn[nH]n1 [Example 22, 2-(2H-tetrazol-5-yl)-3-{6-[2-(trifluoromethyl)-1,3-dioxolan-2-yl]pyridin-3-yl}benzenesulfonamide]	200	1.563	6.25	2	31.8	26.7								
NS(=O)(=O)c1cccc(C2CCCN(C(=O)C3CC3)C2)c1-c1nn[nH]n1 (stereo not drawn) [Example 177, 3-(1-(cyclopropanecarbonyl)piperidin-3-yl)-2-(2H-tetrazol-5-yl)benzenesulfonamide]	>200	6.25	37.5	12.8	668	733								
CC1C(=O)Nc2ccc(-c3cccc(S(N)(=O)=O)c3-c3nn[nH]n3)cc21 (stereo not drawn) [Example 73, 3-(3-methyl-2-oxo-2,3-dihydro-1H-indo1-5-yl)-2-(2H-tetrazol-5-yl)benzenesulfonamide]	100	1.563	18.75	6.49	156	66.7								
Cc1csc(-c2cccc(S(N)(=O)=O)c2-c2nn[nH]n2)n1 [Example 34, 3-(4-methyl-1,3-thiazol-2-yl)-2-(2H-tetrazol-5-yl)benzenesulfonamide]	>200	3.125	150	151	3090	1440								
CCOCc1ccc(-c2cccc(S(N)(=O)=O)c2-c2nnn[nH]2)cc1 [Example 397, 4′-(Ethoxymethyl)-2-(1H-tetrazol-5-yl)-[1,1′-biphenyl]-3-sulfonamide]								>200	3.906	9.375	3.93	37.3	246	
NS(=O)(=O)c1cccc(-c2ccc3cn[nH]c3c2)c1-c1nn[nH]n1 [Example 90, 3-(1H-indazol-6-yl)-2-(2H-tetrazol-5-yl)benzenesulfonamide]	12.5	0.5859	25	2.24	197	15.5								
NS(=O)(=O)c1cccc(-c2ccnn2Cc2ccccc2)c1-c1nn[nH]n1 [Example 95, 3-(1-benzyl-1H-pyrazol-5-yl)-2-(2H-tetrazol-5-yl)benzenesulfonamide]	>200	3.906	106.3	1.51	534		375							
NS(=O)(=O)c1cccc(-c2cccc(F)n2)c1-c1nn[nH]n1 [Example 36, 3-(6-fluoropyridin-2-yl)-2-(2H-tetrazol-5-yl)benzenesulfonamide]	75	1.953	50	38.7	790	219								
NS(=O)(=O)c1cccc(-c2ccccc2)c1-c1nn[nH]n1 [Example 14, 2-(2H-tetrazol-5-yl)biphenyl-3-sulfonamide]	100	0.3906	6.25	5.19	172	108								
Cn1nccc1-c1cccc(S(N)(=O)=O)c1-c1nn[nH]n1 [Example 49, 3-(1-methyl-1H-pyrazol-5-yl)-2-(2H-tetrazol-5-yl)benzenesulfonamide]	12.5	0.5859	150	21.6	4050	61.7								
CN1CCC=C(c2cccc(S(N)(=O)=O)c2-c2nn[nH]n2)C1 [Example 65, 3-(1-methyl-1,2,5,6-tetrahydropyridin-3-yl)-2-(2H-tetrazol-5-yl)benzenesulfonamide]	>200	4.688	>200	905	20000	4990								
COC(=O)N1CCC(c2ccc(-c3cccc(S(N)(=O)=O)c3-c3nnn[nH]3)cc2)CC1 [Example 28, methyl 4-[3′-sulfamoyl-2′-(1H-tetrazol-5-yl)biphenyl-4-yl]piperidine-1-carboxylate]	>200	12.5	12.5	0.972	3.74	26.7								
NS(=O)(=O)c1cccc(-c2ccn3cncc3c2)c1-c1nn[nH]n1 [Example 247, 3-(Imidazo[1,5-a]pyridin-7-yl)-2-(2H-tetrazol-5-yl)benzenesulfonamide]								37.5	0.3906	25	14.6	479		116
